Reference: PMC9458065, “Discovery of Quinacrine as a Potent Topo II and Hsp90 Dual-Target Inhibitor, Repurposing for Cancer Therapy” (Molecules, 2022)
Where a name gives a salt, the structure may show the parent alone.

What was measured:
[1] = tested on: HL60 (HL−60 human leukemia cell); experiment: cells; design: MTT cell proliferation assay, OD 570 nm, IC50 from triplicate dose-response; conditions: MTT, 48 h
Description: The cell proliferation assay was evaluated using the MTT assay as described by Mosmann, with modifications. Cells were seeded into 96−well plates (5 × 10^3 cells/well) and exposed to various concentrations of compounds. After 48 h of treatment, 20 μL of 2.5 mg/mL MTT reagent was added to each well, and the cells were further incubated for 4 h at 37 ℃. The cells in each well were then treated with 100 μL of dimethyl sulfoxide (DMSO), and the optical density (OD) was recorded at 570 nm using a microplate reader (Bio−Tek). All experiments were performed in parallel three times, and the IC50 values were derived from the mean OD values of triplicate tests versus the drug concentration curves. […] HL−60 human leukemia cell is sensitive to Topo II inhibitors, which are commonly used to evaluate the inhibitory effect of Topo II inhibitors on proliferation.

[2] = biological target: T1, hTopo IIα ATPase (Homo sapiens, UniProt P11388); experiment: malachite green ATPase assay; assay type: biochemical; conditions: 100 µM; […] ATP, […] MgCl2, pH […] °C, […] min; relative inhibition rate, not absolute inhibition
T1 construct: gene TOP2A; ATPase region, residues 29-428 (400 residues), N-terminal 6xHis, pET28a, E. coli BL21 (DE3)
Description: malachite green ATPase assay on hTopo IIα ATPase

[3] = biological target: T2, Hsp90α N−ATPase (9−236) (Homo sapiens, UniProt P07900); experiment: fluorescence polarization displacement of GM-FITC
T2 construct: gene HSP90AA1

[4] = biological target: T3, Hsp90α (Homo sapiens, UniProt P07900); experiment: malachite green ATPase assay; assay type: biochemical; conditions: read-out: % inhibition at 100 μM
T3 construct: gene HSP90AA1

[5] = biological target: T4, human Topo IIα (Homo sapiens, UniProt P11388); experiment: pBR322 DNA relaxation, agarose gel; assay type: biochemical
T4 construct: gene TOP2A; full-length enzyme of a commercial relaxation kit (Inspiralis)
T4 sequence (P11388 whole entry): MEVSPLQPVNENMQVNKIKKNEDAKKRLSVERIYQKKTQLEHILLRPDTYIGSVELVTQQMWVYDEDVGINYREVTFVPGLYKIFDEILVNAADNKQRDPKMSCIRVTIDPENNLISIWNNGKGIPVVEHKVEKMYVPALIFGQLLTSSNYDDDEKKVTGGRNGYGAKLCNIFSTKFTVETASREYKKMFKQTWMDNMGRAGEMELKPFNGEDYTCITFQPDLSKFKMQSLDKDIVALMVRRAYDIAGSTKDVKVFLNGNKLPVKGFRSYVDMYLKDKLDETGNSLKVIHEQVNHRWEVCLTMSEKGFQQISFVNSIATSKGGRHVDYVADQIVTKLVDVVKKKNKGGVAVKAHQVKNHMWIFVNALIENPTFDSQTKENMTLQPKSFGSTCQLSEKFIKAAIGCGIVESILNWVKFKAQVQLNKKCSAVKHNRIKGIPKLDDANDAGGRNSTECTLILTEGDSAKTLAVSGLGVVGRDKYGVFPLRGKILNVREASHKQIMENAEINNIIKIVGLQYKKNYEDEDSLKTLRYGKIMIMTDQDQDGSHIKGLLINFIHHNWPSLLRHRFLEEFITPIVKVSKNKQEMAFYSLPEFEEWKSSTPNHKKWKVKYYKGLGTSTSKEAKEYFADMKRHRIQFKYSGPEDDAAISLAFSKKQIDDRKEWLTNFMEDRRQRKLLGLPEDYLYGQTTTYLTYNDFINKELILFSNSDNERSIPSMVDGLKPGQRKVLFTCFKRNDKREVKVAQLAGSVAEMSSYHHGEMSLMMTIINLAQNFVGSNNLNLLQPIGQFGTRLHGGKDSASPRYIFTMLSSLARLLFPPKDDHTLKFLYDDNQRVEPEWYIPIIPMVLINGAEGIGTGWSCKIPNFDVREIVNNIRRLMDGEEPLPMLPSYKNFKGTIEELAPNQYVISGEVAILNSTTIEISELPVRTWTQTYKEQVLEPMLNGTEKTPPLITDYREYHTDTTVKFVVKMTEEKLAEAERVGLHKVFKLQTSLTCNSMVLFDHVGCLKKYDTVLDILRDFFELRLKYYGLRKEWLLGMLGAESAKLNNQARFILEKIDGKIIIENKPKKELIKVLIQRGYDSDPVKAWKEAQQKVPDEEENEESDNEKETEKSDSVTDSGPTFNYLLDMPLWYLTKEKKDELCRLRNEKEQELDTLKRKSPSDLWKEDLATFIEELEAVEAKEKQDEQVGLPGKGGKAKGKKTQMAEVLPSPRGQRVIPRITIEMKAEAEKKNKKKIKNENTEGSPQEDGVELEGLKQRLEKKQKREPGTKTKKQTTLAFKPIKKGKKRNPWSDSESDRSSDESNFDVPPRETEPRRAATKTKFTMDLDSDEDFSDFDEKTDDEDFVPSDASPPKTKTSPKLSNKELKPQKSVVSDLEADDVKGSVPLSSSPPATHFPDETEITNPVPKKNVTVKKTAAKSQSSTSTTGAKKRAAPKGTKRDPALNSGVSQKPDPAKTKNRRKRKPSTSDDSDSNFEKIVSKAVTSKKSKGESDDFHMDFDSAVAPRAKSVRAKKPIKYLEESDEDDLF

T1 sequence (P11388 29-428): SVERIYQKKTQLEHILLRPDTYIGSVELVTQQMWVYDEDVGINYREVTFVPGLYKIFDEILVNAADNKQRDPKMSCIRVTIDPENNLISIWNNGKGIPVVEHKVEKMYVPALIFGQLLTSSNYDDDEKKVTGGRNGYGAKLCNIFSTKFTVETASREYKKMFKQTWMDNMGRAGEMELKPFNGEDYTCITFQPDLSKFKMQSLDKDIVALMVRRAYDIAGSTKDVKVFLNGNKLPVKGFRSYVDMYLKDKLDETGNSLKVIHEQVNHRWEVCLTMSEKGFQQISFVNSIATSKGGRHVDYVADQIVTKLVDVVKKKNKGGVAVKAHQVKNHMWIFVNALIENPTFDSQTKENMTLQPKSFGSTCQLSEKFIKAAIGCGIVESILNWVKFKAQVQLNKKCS

SMILES	IC50 [1] [µM]	other results
CO[C@@H]1[C@H](N(C)C(=O)c2ccccc2)C[C@H]2O[C@]1(C)n1c3ccccc3c3c4c(c5c6ccccc6n2c5c31)C(=O)NC4 [K−C10, PKC−412]	0.75	–
Oc1cc(O)cc(/C=C/c2ccc(O)c(O)c2)c1 [K−C11, Piceatannol]	12.1	Topo II ATPase RIR (%) * [2]: 70.5%
N[C@@H](Cc1cc(I)c(Oc2cc(I)c(O)c(I)c2)c(I)c1)C(=O)O [8−H9, L−thyroxine]	> 25	–
CN1CCN(CCCN2c3ccccc3Sc3ccc(C(F)(F)F)cc32)CC1 [3−E6, Trifluoperazine 2HCl]	> 25	–
Cc1cc(O)c2c(=O)c3c(O)cc(O)c4c5c(O)cc(O)c6c(=O)c7c(O)cc(C)c8c1c2c(c34)c(c78)c65 [K−D8, Hypericin]	> 25	–
N=C(N)NC(=O)Cc1c(Cl)cccc1Cl [2−H11, Guanfacine HCl]	> 25	–
N#C/C(=C\c1ccc(O)c(O)c1)C(N)=S [K−C2, Tyrphostin 47]	> 25	Topo II ATPase RIR (%) * [2]: 90.3%
Cn1cc(C2=C(c3cn(CCCSC(=N)N)c4ccccc34)C(=O)NC2=O)c2ccccc21 [K−D9, Ro 31−8220]	1.18	Topo II ATPase RIR (%) * [2]: 99.7%
CN[C@@H]1[C@H](O[C@H]2[C@H](O[C@H]3[C@H](O)[C@@H](O)[C@H](N=C(N)N)[C@@H](O)[C@@H]3N=C(N)N)O[C@@H](C)[C@]2(O)C=O)O[C@@H](CO)[C@H](O)[C@H]1O [7−H3, Streptomycin sulfate]	> 25	–
CN(C)CCCn1cc(C2=C(c3c[nH]c4ccccc34)C(=O)NC2=O)c2ccccc21 [K−D7, GF 109203X]	9.51	–
COc1ncnc(NS(=O)(=O)c2ccc(N)cc2)c1OC [7−H4, Sulfadoxine]	> 25	–
O=C(c1ccc(OCCN2CCCCC2)cc1)c1c(-c2ccc(O)cc2)sc2cc(O)ccc12 [4−C3, Raloxifene HCl]	7.2	–
CC1(C)S[C@@H]2[C@H](NC(=O)[C@H](N)c3ccccc3)C(=O)N2[C@H]1C(=O)O [5−E6, Ampicillin trihydrate]	> 25	–
COC[C@H]1OC(=O)c2coc3c2[C@@]1(C)C1=C(C3=O)[C@@H]2CCC(=O)[C@@]2(C)C[C@H]1OC(C)=O [K−D6, Wortmannin]	13.3	–
CC[N+](CC)(CC)CCOc1cccc(OCC[N+](CC)(CC)CC)c1OCC[N+](CC)(CC)CC [3−C11, Gallamine triethiodide]	> 25	–
N#CC(C#N)=C(N)/C(C#N)=C/c1cc(O)c(O)c(O)c1 [K−C3, Tyrphostin 51]	> 25	Topo II ATPase RIR (%) * [2]: 85.8%
Nc1ccc(S(=O)(=O)Nc2ncccn2)cc1 [7−H5, Sulfadiazine]	> 25	–
N#C/C(=C\c1ccc(O)c(O)c1)C(=O)NCc1ccccc1 [K−D1, AG−490]	19	Topo II ATPase RIR (%) * [2]: 61.6%

SMILES	IC50 [1] [µM]	other results
Nc1ccc(C(=O)O)c(O)c1 [5−E4, 4−aminosalicylic acid]	> 25	–
CC(=O)Nc1ccc(CC(=O)O)cc1 [3−H6, Actarit]	8.02	–
COc1cc([C@@H]2c3cc4c(cc3[C@@H](O[C@@H]3O[C@@H]5CO[C@@H](C)O[C@H]5[C@H](O)[C@H]3O)[C@H]3COC(=O)[C@H]23)OCO4)cc(OC)c1O [VP−16]	0.17	–
CCN(CC)CCCC(C)Nc1c2ccc(Cl)cc2nc2ccc(OC)cc12 (centres unmarked) [7−F2, quinacrine]	5.22	IC50 [3]: 13.6 µM; Topo II ATPase RIR (%) * [2]: 42.3%; inhibition at 100 µM [4]: ~70%; IC50 [5]: 6.18 µM
O=c1c(-c2ccc(O)cc2)coc2cc(O)ccc12 [K−F12, Daidzein]	3.02	Topo II ATPase RIR (%) * [2]: 101.2%
COc1cc(NS(=O)(=O)c2ccc(N)cc2)nc(OC)n1 [7−H6, Sulfadimethoxine]	> 25	–
CN[C@@H]1C[C@H]2O[C@@](C)([C@@H]1OC)n1c3ccccc3c3c4c(c5c6ccccc6n2c5c31)C(=O)NC4 [K−B6, Staurosporine]	–	Topo II ATPase RIR (%) * [2]: 111.2%
O=C(O)c1cc(/N=N/c2ccc(S(=O)(=O)Nc3ccccn3)cc2)ccc1O [7−H7, Sulfasalazine]	> 25	–
COc1cc2nc(N3CCN(C(=O)C4CCCO4)CC3)nc(N)c2cc1OC (centres unmarked) [7−H11, Terazosin HCl]	> 25	–
CN1C(C(=O)Nc2ccccn2)=C(O)c2sccc2S1(=O)=O [7−H10, Tenoxicam]	> 25	–
Nc1ccc(O)c(C(=O)O)c1 [5−E5, 5−aminosalicylic acid]	> 25	–
COc1ccc(C[C@@H]2c3cc(OC)c(OC)cc3CC[N@+]2(C)CCC(=O)OCCCCCOC(=O)CC[N@@+]2(C)CCc3cc(OC)c(OC)cc3[C@H]2Cc2ccc(OC)c(OC)c2)cc1OC [5−E11, Atracurium besylate]	22.9	–
O=C1C(O)=C([C@H]2CC[C@H](c3ccc(Cl)cc3)CC2)C(=O)c2ccccc21 [2−G7, Atovaquone]	9.43	–
CCOc1ccccc1OCCN[C@H](C)Cc1ccc(OC)c(S(N)(=O)=O)c1 [7−H8, Tamsulosin HCl]	> 25	–
CCCCCCCCCCCCC/C=C/[C@@H](O)[C@@H](N)CO [K−D10, Sphingosine]	11.1	Topo II ATPase RIR (%) * [2]: 94.3%
COc1cc2nc(N3CCN(C(=O)C4COc5ccccc5O4)CC3)nc(N)c2cc1OC (centres unmarked) [6−B10, Doxazosin mesylate]	19.7	–
CCCc1nc2c(C)cc(-c3nc4ccccc4n3C)cc2n1Cc1ccc(-c2ccccc2C(=O)O)cc1 [7−H9, Telmisartan]	> 25	Topo II ATPase RIR (%) * [2]: 79.4%
